Measurements published in US12129313B2, “Anti-inflammatory use of peptide” (ENLITISA (SHANGHAI) PHARMACEUTICAL CO., LTD, priority 2017, dated 2024).
Where no end group is shown, it is not given here. [ ]: non-standard residue; d: D form. Dopa = N[C@@H](Cc1ccc(O)c(O)c1)C(=O)O; Hyp = O=C(O)[C@@H]1C[C@@H](O)CN1

Key:
C57BL/6 mice [1] = test: Air pouch model (carrageenan): exudate volume, pouch wall weight, exudate cell count; type: in vivo; set-up: Neutrophil (total cell count and classification) / Monocyte (total cell count and classification): unit not given here; conditions: for Pouch Wall Weight / Exudate volume: mean ± SD, 24 hours after carrageenan; for Exudate volume: injected into air pouch, per mouse: Positive 200 μg, M1-B/M1-A/Test 1.5 mg, M2-B/M2-A 4.5 mg, timing 1 hour (Positive, -B, Test) or 6 hours (-A), Table 1
Experimental: Healthy adult male C57BL/6 mice weighing between 20 and 30 g were supplied by Nanjing Biomedical Research Institute (NBRI) of Nanjing University, China. Prior to any experiments being conducted, mice were housed under standardized conditions (at a constant temperature or 22±2° C., with alternating 12 hour periods of light and darkness), and were fed on a standard mouse diet with water, for about a week.
General anesthesia was induced using intraperitoneal 3% chloral hydrate (Sinopharm Chemical Reagent Co., Ltd., Shanghai, China); 1 mL/10 g of body weight). The hair of the entire dorsum was shaved and depilated 1 day before sterile air injection.
(§1) Air pouches were produced by subcutaneous injection of sterile air (5 mL) into the intrascapular area of the mice. After three days, another injection of air (3 mL) was performed to maintain the pouches. In order to induce acute inflammation, three days after this final injection, animals received an injection of sterile carrageenan solution (CP Kelco, Taixing, Jiangsu Province, China; 1%, 0.5 mL; produced by adding 0.1 g of carrageenan powder into a beaker containing 10 mL of 0.9% saline solution and stirring). Mice were pre-treated with test samples or vehicle 1 hour before and 23 hours after the carrageenan injection into the subcutaneous air pouch. Animals were sacrificed 24 hours after the carrageenan injection.
The cavity was washed with 4 mL of sterile phosphate buffer solution (pH 7.4; prepared by dissolving 4 g of NaCl, 0.1 g of KCl, 1.749 g of Na2HPO4.12H2O and 0.1 g of KH2PO4 in ultrapure water, adjusting the pH to 7.4 with HCl and diluting with water to a total volume of 500 mL).
(§2) Exudates were collected and volumes were quantified. The total number of cells was determined with a haematocytometer (ADVIA 2120 Hematology System, Siemens Healthineers). The exudates were centrifuged at 3000 rpm for 10 minutes at 4° C., and the supernatants were collected and stored at −20° C. for ELISA analysis using standard ELISA test kits (Biolegend™ from Dakewe Biotech Co., Beijing, China or Abcam™, Abcam (Shanghai) Trading Co. Ltd, China) and an ELISA reader (SH-1000 Hitachi, Japan) for tissue necrosis factor alpha (TNF-α), interleukin 1 beta (IL-1β), interleukin 6 (IL-6), interleukin 10 (IL-10), prostaglandin E2 (PGE2), interferon gamma (IFN-γ) and 5-hydroxytryptamine (5-HT; serotonin).
After conducting some preliminary experiments to validate the model, an experiment was conducted in which mice were treated by administering test samples or vehicle in accordance with Table 1 below.
In Table 1, the M1-B, M2-B, M1-A and M2-A samples are MAP (Mefp-1) solutions of specified concentrations administered at different times relative to the carrageenan injection, as specified in the table. The solutions were prepared as follows. Blue mussels were harvested in the coastal area of Shandong Province, China. Mussel feet were collected, cut into small pieces and homogenized in an extraction buffer comprising 5% acetic acid in 4 mol/L of aqueous urea. The crude extracts were collected after centrifuging and then purified by liquid chromatography. The purified protein (semi-finished product; concentration 8 mg/mL; purity as measured by HPLC 91.72%; pH 4.2) was stored at 0° C. The solutions that were employed below were prepared by adding saline solution to this semi-finished product to obtain the concentrations described in Table 1.
Also in Table 1, “Test” is MAP Peptide, which was obtained from Innovagen AB, Sweden. The peptide was synthesized according to the relevant Mefp-1 amino acid sequence. The peptide powder was stored at −20° C. and dissolved in saline water at a concentration of 3.0 mg/mL, pH 5.5.
Dexamethasone (MedChemExpress, Shanghai, China) was obtained in powder form and dissolved in ultrapure water to obtain a solution with a concentration as described in Table 1.
All the substances listed in Table 1 were administrated topically by directly injecting into the air pouches.

[2] = test system: polymorphous light eruption; test: MAP Peptide liquid spray in subjects with polymorphous light eruption; type: in vivo; conditions: 1.5 mg/mL spray in WFI
Experimental: MAP Peptide was dissolved in water for injection (WFI; prepared from TC-RO-0.25T/h-2 water treatment system, Yangzhou […] Treatment Devices & Engineering Co., Ltd., Yangzhou, China). The concentration of the solution was 1.5 mg/mL. The solution was loaded into a spray device. Enrolled subjects in the study were diagnosed with polymorphous light eruption (an inflammatory condition characterized by a rash caused by sun exposure in people who have developed sensitivity to sunlight). Prior to treatment, the patients presented symptoms including skin redness, papules, itching and swelling. Subjects were required to use the liquid spray in the morning and the evening after facial cleansing.

C57BL/6 mice [3] = test: Air pouch model: histology scoring of pouch wall (HE stained slices); type: in vivo; set-up: key to Inflammation score / Edema Score / Motility score: 1 = mild, 2 = moderate, 3 = severe; conditions: for Motility score: density of neutrophils, 1 to 3 points; for Motility score / Edema Score / Inflammation score: doses and timing per Table 1; for chronic inflammatory cell infiltration of the pouch wall / edema of the pouch wall / neutrophil infiltration of the pouch wall: histological description in words; for Edema Score / Inflammation score: pouch wall histology; for Edema Score: 1 mild to 3 most severe; for Inflammation score: 1 mild to 3 severe; for Sum: sum of inflammation, edema and motility scores
Experimental: as §1
Skin biopsies were taken from the air pouches. A part of the biopsy was fixed in formalin (produced by adding ultra pure water to 50 mL of a 40% formaldehyde solution (Nanchang Rain Dew Experimental Equipment Co., Ltd., Nanchang, […] Provence, China) up to a total volume of 500 mL) and analyzed by histological embedding in paraffin wax, sectioning and staining.
The histological specimens were analysed and an inflammation score, a motility score, an edema score and […] were estimated as follows.
The HE stained slices were observed under an optical microscope and were scored (1, 2 or 3 points) according to the perceived inflammation level (in cases showing only a small amount of inflammatory cells scattered in the area—1 point (mild); in cases where many inflammatory cells were observed—2 points (moderate); and, in cases with diffuse infiltration—3 points (severe)). A similar scoring system was employed for edema levels (3 points for most severe and 1 point for mild) after overall observation. Motility scores represented the density of neutrophils, which employed the same methodology as that employed for inflammatory cells.

C57BL/6 mice [4] = test: Acute wound model: wound contraction ratio; type: in vivo
Experimental: 6-8 weeks old male C57BL/6 mice were supplied by Changzhou Ovens Experimental Animal Co. Ltd (Changzhou, Jiangsu Province, China). Prior to any experiments being conducted, mice were housed under standardized conditions (at a constant temperature of 22±2° C., with alternating 12 hour periods of light and darkness), and were fed on a standard mouse diet with water, for about a week.
General anesthesia was induced using intraperitoneal 3% chloral hydrate (1 mL/10 g of body weight). The hair on the back was shaved by a baby hair shaver and depilated with cream. The skin area was wiped and sterilized with 75% alcohol twice.
An EMS skin biopsy punch (Electron Microscopy Sciences, P.O. Box 550, 1560 Industry Road, Hatfield, PA, USA) with 8 mm diameter was used to make a round wounds on each side of the midline of the back. The full thickness of skin was removed and the depth of the wound reached the fascia. Wounds were left open without a suture.
Different drugs were administrated topically at 50 μL/wound, once daily from Day 0 to Day 12, as show in Table 8 below. […] The model group was given same amount of normal saline. There were 12 mice in each group.
For this experiment, MAP Peptide was obtained from GL Biochem (Shanghai) Ltd. The peptide powder was stored at −20° C. and dissolved in saline at a concentration of 33 μg/m L.
20 μL of respective solutions were applied onto each wound surface in the relevant groups.
Wounds were dressed with gauze and transparent dresser after drug administration. Photographs were taken for each wound every other day from Day 0. Photos were scanned into a computer, and wound areas calculated using ImageJ image analysis software (National Institutes of Health, […]).
Photographs were taken for each wound every other day from Day 0. Wound healing was calculated by the wound contraction ratio (WCR) WCR=(A0−At)/A0×100% where A0 and At refer to the initial area at Day 0 and the wound area at the date of measurement (time t), respectively.

TNF-α = test: Air pouch model: ELISA of exudate for TNF-α; type: in vivo, mice; conditions: ±SD, doses and timing per Table 1
Experimental: as §1, with “Animals were sacrificed 24 hours after the carrageenan injection.” left out
as §2, with “serotonin). […]” for “serotonin).”

C57BL/6 mice [5] = test: Air Pouch Model II: histology scoring; type: in vivo
Experimental: (§3) Essentially the same procedure as that described in Example 1 above was followed, to treat mice by administering test samples or vehicle in accordance with Table 6 below.
(§4) In this example, MAP Peptide powder was dissolved in saline water at a concentration of 0.6 mg/mL at pH 5.5. Then 0.5 mL of the solution was injected into each air pouch in the group.

IL-6 = test: Air pouch model: ELISA of exudate for IL-6; type: in vivo, mice; conditions: ±SD, doses and timing per Table 1
Experimental: as §1
Exudates were collected and volumes were quantified. […] The exudates were centrifuged at 3000 rpm for 10 minutes at 4° C., and the supernatants were collected and stored at −20° C. for ELISA analysis using standard ELISA test kits (Biolegend™ from Dakewe Biotech Co., Beijing, China or Abcam™, Abcam (Shanghai) Trading Co. Ltd, China) and an ELISA reader (SH-1000 Hitachi, Japan) for tissue necrosis factor alpha (TNF-α), interleukin 1 beta (IL-1β), interleukin 6 (IL-6), interleukin 10 (IL-10), prostaglandin E2 (PGE2), interferon gamma (IFN-γ) and 5-hydroxytryptamine (5-HT; serotonin).

TNF-α, IL-6, and IL-1β = test: Air Pouch Model II: ELISA of exudate; type: in vivo, mice; conditions: 300 μg/mouse into air pouch; FIGS. 2A-2C
Experimental: as §3, §4
In this example, ELISA analysis was carried out for TNF-α, IL-6, and IL-1β, which are shown graphically in FIGS. 2A-2C, respectively.

IFN-γ = test: Air pouch model: ELISA of exudate for IFN-γ; type: in vivo, mice; conditions: ±SD, doses and timing per Table 1
Experimental: as §1, with “Animals were sacrificed 24 hours after the carrageenan injection.” left out
as §2, with “serotonin). […]” for “serotonin).”

[6] = air pouch exudate, doses and timing per Table 1
[7] = ±SD, topical once daily, MAP 5 μg/wound, MAP Peptide 6.57 μg/wound
[8] = 300 μg/mouse into air pouch, 1 hour before carrageenan

Row | Compound | Leukocyte (total cell count and classification) (C57BL/6 mice [1]; [6]) [mL⁻¹] | Pouch Wall Weight (C57BL/6 mice [1]; doses and timing per Table 1) [g] | Exudate volume (C57BL/6 mice [1]) [mL] | Motility score (C57BL/6 mice [3]) | chronic inflammatory cell infiltration of the pouch wall (C57BL/6 mice [3]) | edema of the pouch wall (C57BL/6 mice [3]) | neutrophil infiltration of the pouch wall (C57BL/6 mice [3]) | Edema Score (C57BL/6 mice [3]) | Inflammation score (C57BL/6 mice [3]) | Sum (C57BL/6 mice [3]) | TNF-α (TNF-α) | IL-6 (IL-6) | IFN-γ (IFN-γ) | other results
1 | AKPSY[Hyp][Hyp]T[Dopa]K [MAP Peptide] | 4.74e+06 | 0.60 ± 0.17 | 3.43 ± 0.06 | 1.00 | mild to moderate chronic inflammatory cell infiltration | interstitial edema | a small amount of neutrophil infiltration | 1.00 | 1.67 | 3.67 | 58.49 ± 28.72 | 132.63 ± 137.34 | 377.31 ± 198.68 | Monocyte (total cell count and classification) (C57BL/6 mice [1]; [6]): 81.54 ×10^6; Neutrophil (total cell count and classification) (C57BL/6 mice [1]; [6]): 296.32 ×10^6; erythema alleviation efficiency compared to MAP spray of same concentration [2]: much more rapid erythema alleviation efficiency; malaise [2]: inhibited malaise; subjects whose erythema completely disappeared in a few hours [2]: 50%; tested subjects with itch completely relieved within 1 minute [2]: 50%; time to alleviation of most of the observed erythema [2]: ≤ 1 min; time to relief of itching ([2]; morning and evening): ≤ 1 min; improvement rate, (WCR MAP Peptide Group−WCR MAP Group)/WCR MAP Group×100% (C57BL/6 mice [4]; Day 6, versus MAP group): 52.96%; effect on wound healing compared with MAP (C57BL/6 mice [4]; acute wound model, Table 9): stronger effect on wound healing than MAP; wound contraction ratio (WCR), Day 2 (C57BL/6 mice [4]; [7]): 6.99 ± 2.02%; wound contraction ratio (WCR), Day 4 (C57BL/6 mice [4]; [7]): 18.65 ± 1.87%; wound contraction ratio (WCR), Day 6 (C57BL/6 mice [4]; [7]): 42.91 ± 0.57%; wound contraction ratio (WCR), Day 8 (C57BL/6 mice [4]; [7]): 48.73 ± 1.65%; wound contraction ratio (WCR), Day 0 (C57BL/6 mice [4]; ±SD, topical once daily, MAP 5 μg/wound, MAP Peptide 6.57 μg/wound, 8 mm full thickness wound): 0.00 ± 0%; Inflammation score (C57BL/6 mice [5]; 300 μg/mouse (0.6 mg/mL, 0.5 mL) into air pouch, 1 hour before carrageenan): 1.6; Edema Score (C57BL/6 mice [5]; [8]): 1.8; Fibroplastic proliferation score (C57BL/6 mice [5]; [8]): 0.2; Sum (C57BL/6 mice [5]; 300 μg/mouse, printed sums equal inflammation + edema scores only): 3.4; anti-inflammatory effects (ELISA for TNF-α, IL-6, IL-1β) (TNF-α, IL-6, and IL-1β): very strong anti-inflammatory effects
2 | C[C@@H]1C[C@H]2[C@@H]3CCC4=CC(=O)C=C[C@]4(C)[C@@]3(F)[C@@H](O)C[C@]2(C)[C@@]1(O)C(=O)CO [Positive, Dexamethasone, reference compound] | 3.49e+06 | 0.63 ± 0.09 | 3.3 ± 0.15 | 0.67 | moderate chronic inflammatory cell infiltration | moderate interstitial edema | a small amount of neutrophil infiltration | 1.67 | 1.83 | 4.17 | 65.08 ± 7.70 | 428.05 ± 267.27 | 388.83 ± 130.02 | –
